Drawing on US20110158944A1, “BRAF BIOMARKERS” (priority 2007, published 2011), this text covers IC50 for two compounds.

Common to all, as to experiment: Cell proliferation IC50 (Cell Titer Glo)
What all share (assay type): cell-based
(ATP-based viability assays read luminescence as a measure of living cells.)

The test system of one assay is Jijoye. The following applies: Homo sapiens, 96 h, read-out: IC50 cell proliferation. The procedure:
(§1) IC50 Cell proliferation measurements. Cell proliferation was assessed in the 41 tumor cell lines set forth in Table 2 after 4 days of continuous exposure to either the ERK1/2 inhibitor, compound a or the MEK inhibitor compound b (PD0325901) using Promega Cell Titer Glo reagent (Promega Corp, Madison, Wis.). Promega's CellTiter-Glo™ Luminescent Cell Viability Assay is a sensitive method for assaying cell proliferation using a stable form of luciferase to measure ATP as an indicator of viable cells. This reagent allows a homogeneous method of determining cell number by quantitation of ATP. The luciferase luminescent signal produced is proportional to the number of viable cells present in culture.
(§2) A 1000× compound dose response curve, containing 8 dilutions of each compound, was prepared on a 96-well plate. Compounds were diluted in 100% DMSO to the following (1000×) concentrations: compound b: 1000 μM, 333 μM, 111 μM, 37 μM, 12 μM, 4.1 μM, 1.4 μM and 0.5 μM; compound a: 3000 μM, 1000 μM, 333 μM, 111 μM, 37 μM, 12 μM, 4.1 μM and 1.4 μM. This compound source plate was sealed and kept frozen between uses.
(§3) Cells were grown in RPMI 1640 medium supplemented with 10% Fetal Bovine Serum, 2 mM Glutamine and non-essential amino acids or DMEM/F12 Media containing the same supplements. On day zero, cells were trypsinized, counted and plated into wells of a 96-well Wallac TC Isoplate (Perkin-Elmer Wallac, Gaithersburg, Md.) at a density of 1500-2000 cells per well in 50 μl of complete media. An additional 6-8 replicate well of the cells at the same density were plated on a separate Wallac TC Isoplate. This plate was developed on day 1 to determine the cell-growth baseline.
(§4) On day 1 of treatment, compound was diluted to 2× in media and immediately added to the cells as follows: one ml of media was added to each well of a deep-well 96-well plate and 2 μl of 1000× compound was added with mixing to make 2× compound in media. 50 μl of the media containing 2× compound was added to the cell plates in duplicate points so the final concentrations for each well were as outlined in Table 1. The plates were then returned to a 37° C. incubator and left undisturbed for 4 days. The day 1 (baseline) plates were developed by first adding 50 μl media (without compound) to bring the volume in each well to 100 μl, then adding 100 μl of Cell Titer Glo reagent (as below).
(§5) After four days of treatment, the plates were developed with Cell Titer Glo (CTG) reagent (Promega Corp.; Madison, Wis.). Reagent was reconstituted as described in the product insert. 100 μl of reagent was added to all treatment and control wells and the plates were gently shaken for 5 minutes then incubated an additional 5 minutes before reading in an Analyst AD (Molecular Devices Corporation; Sunnyvale, Calif.) using the Luminescence settings.
(§6) Data was analyzed in Excel using XLfit 4.2, fit model #205 (Dose Response One Site)

A further assay has as its system ES-2. The conditions noted are these: Homo sapiens, read-out: IC50 cell proliferation. The procedure:
as §1, §2, §3, §4, §5, §6

In a further assay the test system is HT-144. The following applies: Homo sapiens, read-out: IC50 cell proliferation. How it is done:
as §1, §2, §3, §4, §5, §6

The next assay concerns SK-Mel-31. The following applies: Homo sapiens, 96 h, read-out: IC50 cell proliferation. The procedure: as §1, §2, §3, §4, §5, §6
The next assay deals with H292. The conditions noted are these: Homo sapiens, NCI-H292, 96 h, read-out: IC50 cell proliferation. How it is done:
as §1, §2, §3, §4, §5, §6

In the next assay the test system is WiDr. The following applies: Homo sapiens, 96 h, read-out: IC50 cell proliferation. How it is done:
as §1, §2, §3, §4, §5, §6

A further assay relates to A2058. The following applies: Homo sapiens, read-out: IC50 cell proliferation. How it is done: as §1, §2, §3, §4, §5, §6
In a further assay the test system is SK-Mel-28. The following applies: Homo sapiens, read-out: IC50 cell proliferation. The procedure:
as §1, §2, §3, §4, §5, §6

For the next assay, the system named is TT. The following applies: Homo sapiens, 96 h, Thyroid, BRAF V600V Wild type, 4 days continuous exposure. How it is done: as §1, §2, §3, §4, §5, §6
A further assay has as its system SNU-16. The conditions noted are these: Homo sapiens, read-out: IC50 cell proliferation. How it is done: as §1, §2, §3, §4, §5, §6
The test system of another assay is Caki-1. The following applies: Homo sapiens, read-out: IC50 cell proliferation. How it is done:
as §1, §2, §3, §4, §5, §6

A further assay concerns Hs695T. The conditions noted are these: Homo sapiens, Hs 695T, 96 h, read-out: IC50 cell proliferation. The procedure:
as §1, §2, §3, §4, §5, §6

Another assay relates to Colo-205. The following applies: Homo sapiens, read-out: IC50 cell proliferation. How it is done: as §1, §2, §3, §4, §5, §6
For a further assay, the system named is SK-Mel3. The conditions noted are these: Homo sapiens, read-out: IC50 cell proliferation. How it is done: as §1, §2, §3, §4, §5, §6
The next assay relates to SK-Mel-5. The conditions noted are these: Homo sapiens, read-out: IC50 cell proliferation. How it is done: as §1, §2, §3, §4, §5, §6
A further assay concerns M14. The conditions noted are these: Homo sapiens, read-out: IC50 cell proliferation. The procedure:
as §1, §2, §3, §4, §5, §6

Each structure is given as a SMILES string. Where two headings read alike, the source gives them in different places. Some results are limits rather than exact numbers.

Regarding `O=C(Nc1ccc2[nH]nc(-c3ccncc3)c2c1)C1CCN(CC(=O)N2CCN(c3ccc(-c4ncccn4)cc3)CC2)C1` (centres unmarked) [cpd. a], the IC50 is over 3000 nM in the assay with Jijoye (Jijoye, Leukemia, BRAF V600V Wild type, 4 days continuous exposure); 2660 nM in the assay with ES-2 (96 h, ES-2, Ovarian, BRAF V600E Heterozygous, 4 days continuous exposure); 60 nM in the assay with HT-144 (96 h, HT-144, Melanoma, BRAF V600E Homozygous, 4 days continuous exposure); 150 nM with SK-Mel-31 (SK-Mel-31, Melanoma, BRAF V600E Heterozygous, 4 days continuous exposure); 90 nM in the assay with H292 (H292, Lung, BRAF V600V Wild type, 4 days continuous exposure); 39 nM in the assay with WiDr (Colon, BRAF V600E Heterozygous, 4 days continuous exposure). Further, the IC50 is 120 nM with A2058 (96 h, A2058, Melanoma, BRAF V600E Heterozygous, 4 days continuous exposure); 85 nM with SK-Mel-28 (96 h, SK-Mel-28, Melanoma, BRAF V600E Homozygous, 4 days continuous exposure); 406 nM in the assay on TT; over 3000 nM with SNU-16 (96 h, SNU-16, Gastric, BRAF V600V Wild type, 4 days continuous exposure); 450 nM in the assay with Caki-1 (96 h, Caki-1, Renal, BRAF V600V Wild type, 4 days continuous exposure); 165 nM with Hs695T (Hs695T, Melanoma, BRAF V600E Heterozygous, 4 days continuous exposure). Further, the IC50 in the assay with Colo-205 (96 h, Colo-205, Colon, BRAF V600E Homozygous, 4 days continuous exposure) amounted to 36 nM; with SK-Mel3 (96 h, SK-Mel3, Melanoma, BRAF V600E Heterozygous, 4 days continuous exposure), 118 nM; in the assay with SK-Mel-5 (96 h, SK-Mel-5, Melanoma, BRAF V600E Heterozygous, 4 days continuous exposure) it was 66 nM; in the assay with M14 (96 h, M14, Melanoma, BRAF V600E Homozygous, 4 days continuous exposure), 40 nM.

For `O=C(NOC[C@H](O)CO)c1ccc(F)c(F)c1Nc1ccc(I)cc1F` [cpd. b, PD0325901], the IC50 with Jijoye turned out to be 1000 nM; with ES-2 (ES-2, 96 h) it was 1000 nM; in the assay with HT-144 (HT-144, 96 h), 10 nM; in the assay with SK-Mel-31, 18 nM; in the assay on H292 it was 5 nM; in the assay with WiDr, 6 nM. The IC50 is 10 nM in the assay on A2058 (A2058, 96 h); 10 nM in the assay with SK-Mel-28 (SK-MEL-28, 96 h); 255 nM in the assay with TT; 1000 nM in the assay with SNU-16 (SNU-16, 96 h); 180 nM in the assay on Caki-1 (CAKI-1, 96 h); 29 nM in the assay with Hs695T. Besides, the IC50 in the assay on Colo-205 (COLO 205, 96 h) is 5 nM; with SK-Mel3 (SK-MEL3, 96 h), 8 nM; in the assay with SK-Mel-5 (SK-MEL-5, 96 h), 8 nM; in the assay on M14 (M14, 96 h), 3 nM.
